Values quoted from earlier work in patent US20140212465A1, “TREATMENT AND PREVENTION OF DENTAL PATHOLOGY IN HUMANS AND NON-HUMAN ANIMALS” (priority 2011, published 2014).

Conditions: aqueous environment

For `[Ca+2].[OH-].[OH-]` [calcium hydroxide], which pH is on record?
The pH was 12.5.
